# From patent US20250381243A1, “HETEROCYCLES AND USES THEREOF” (Kumquat Biosciences Inc., priority 2022, published 2025)
# pIC50: −log10 of the molar value.
# System: A549 cells
# Test: Cell proliferation assay (CellTiter-Glo), cells with K-Ras G12S mutation
# Type: cell-based
# Details: Homo sapiens, ≤500 nM, read-out: Inhibition of A549 Cells (IC50)
# How it was run: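 A549 (K-Ras G12S) cells in RPMI-1640 with 10% heat-inactivated FBS, plated in standard or ultra-low-attachment 384-well format, treated next day with a dilution series (e.g., 10-point, 3-fold). Viability read by CellTiter-Glo luminescence about 6 days later; IC50 from four-parameter fit.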
row,pIC50,Structure (SMILES)
1,≥ 6.30,"CN(C[C@@H]1CN(C(=O)n2cnc(C(F)F)n2)[C@@H]1C1CCC1)c1nc(OC[C@@]23CCCN2C[C@H](F)C3)nc2c(F)c(-c3ccc(F)c4sc(N)c(C#N)c34)c(Cl)cc12 [Compound 236, 2-amino-4-(6-chloro-4-((((2R,3R)-2-cyclobutyl-1-(3-(difluoromethyl)-1H-1,2,4-triazole-1-carbonyl)azetidin-3-yl)methyl)(methyl)amino)-8-fluoro-2-(((2R,7aS)-2-fluorotetrahydro-1H-pyrrolizin-7a(5H)-yl)methoxy)quinazolin-7-yl)-7-fluorobenzo[b]thiophene-3-carbonitrile]"
2,≥ 6.30,"CC1([C@H]2N(C(=O)n3cnc(Cl)n3)C[C@]23CCCN(c2nc(OC[C@@]45CCCN4C[C@H](F)C5)nc4c(F)c(-c5ccc(F)c6sc(N)c(C#N)c56)c(Cl)cc24)C3)CC1 [Compound 179, 2-amino-4-(6-chloro-4-((1R,4R)-2-(3-chloro-1H-1,2,4-triazole-1-carbonyl)-1-(1-methylcyclopropyl)-2,6-diazaspiro[3.5]nonan-6-yl)-8-fluoro-2-(((2R,7aS)-2-fluorotetrahydro-1H-pyrrolizin-7a(5H)-yl)methoxy)quinazolin-7-yl)-7-fluorobenzo[b]thiophene-3-carbonitrile]"
3,≥ 6.30,"CC[C@H]1N(C(=O)n2cnc(Cl)n2)C[C@]12CCCCN(c1nc(OC[C@@]34CCCN3C[C@H](F)C4)nc3c(F)c(-c4ccc(F)c5sc(N)c(C#N)c45)c(Cl)cc13)C2 [Compound 131, 2-amino-4-(6-chloro-4-((1R,4R)-2-(3-chloro-1H-1,2,4-triazole-1-carbonyl)-1-ethyl-2,6-diazaspiro[3.6]decan-6-yl)-8-fluoro-2-(((2R,7aS)-2-fluorotetrahydro-1H-pyrrolizin-7a(5H)-yl)methoxy)quinazolin-7-yl)-7-fluorobenzo[b]thiophene-3-carbonitrile]"
4,≥ 6.30,"CN(C(=O)n1cnc(Cl)n1)C1CCN(c2nc(OC[C@@]34CCCN3C[C@H](F)C4)nc3c(F)c(-c4ccc(F)c5sc(N)c(C#N)c45)c(Cl)cc23)C1(C)C (single isomer, unassigned) [Compound 198]"
5,≥ 6.30,"CCN(C[C@@H]1CN(C(=O)n2cnc(Cl)n2)[C@@H]1C(C)C)c1nc(OC[C@@]23CCCN2C[C@H](F)C3)nc2c(F)c(-c3ccc(F)c4sc(N)c(C#N)c34)c(Cl)cc12 [Compound 154, 2-amino-4-(6-chloro-4-((((2R,3R)-1-(3-chloro-1H-1,2,4-triazole-1-carbonyl)-2-isopropylazetidin-3-yl)methyl)(ethyl)amino)-8-fluoro-2-(((2R,7aS)-2-fluorotetrahydro-1H-pyrrolizin-7a(5H)-yl)methoxy)quinazolin-7-yl)-7-fluorobenzo[b]thiophene-3-carbonitrile]"
6,≥ 6.30,"CN(C[C@@H]1CN(C(=O)n2cnc(C#N)n2)[C@@H]1C1CCC1)c1nc(OC[C@@]23CCCN2C[C@H](F)C3)nc2c(F)c(-c3ccc(F)c4sc(N)c(C#N)c34)c(Cl)cc12 (atropisomer, axis not shown; (aS)) [Compound 150, 1-((2R,3R)-3-(((7-((R)-2-amino-3-cyano-7-fluorobenzo[b]thiophen-4-yl)-6-chloro-8-fluoro-2-(((2R,7aS)-2-fluorotetrahydro-1H-pyrrolizin-7a (5H)-yl)methoxy)quinazolin-4-yl)(methyl)amino)methyl)-2-cyclobutylazetidine-1-carbonyl)-1H-1,2,4-triazole-3-carbonitrile]"
7,≥ 6.30,"C[C@H]1CC[C@]2(CN(C(=O)n3cnc(C(F)F)n3)[C@@H]2C2(C)CC2)CN1c1nc(OC[C@@]23CCCN2C[C@H](F)C3)nc2c(F)c(-c3ccc(F)c4sc(N)c(C#N)c34)c(Cl)cc12 (atropisomer, axis not shown; (aS)) [Compound 178, (R)-2-amino-4-(6-chloro-4-((1R,4R,7S)-2-(3-(difluoromethyl)-1H-1,2,4-triazole-1-carbonyl)-7-methyl-1-(1-methylcyclopropyl)-2,6-diazaspiro[3.5]nonan-6-yl)-8-fluoro-2-(((2R,7aS)-2-fluorotetrahydro-1H-pyrrolizin-7a (5H)-yl)methoxy)quinazolin-7-yl)-7-fluorobenzo[b]thiophene-3-carbonitrile]"
8,≥ 6.30,"CC1([C@H]2N(C(=O)n3cnc(F)n3)C[C@]23CCCCN(c2nc(OC[C@@]45CCCN4C[C@H](F)C5)nc4c(F)c(-c5ccc(F)c6sc(N)c(C#N)c56)c(Cl)cc24)C3)CC1 (atropisomer, axis not shown; (aS)) [Compound 193, (R)-2-amino-4-(6-chloro-8-fluoro-4-((1R,4R)-2-(3-fluoro-1H-1,2,4-triazole-1-carbonyl)-1-(1-methylcyclopropyl)-2,6-diazaspiro[3.6]decan-6-yl)-2-(((2R,7aS)-2-fluorotetrahydro-1H-pyrrolizin-7a (5H)-yl)methoxy)quinazolin-7-yl)-7-fluorobenzo[b]thiophene-3-carbonitrile]"
9,≥ 6.30,"CC(C)[C@H]1N(C(=O)n2cnc(C(F)(F)F)n2)C[C@@]12CN(c1nc(OC[C@@]34CCCN3C[C@H](F)C4)nc3c(F)c(-c4ccc(F)c5sc(N)c(C#N)c45)c(Cl)cc13)CCO2 [Compound 160, 2-amino-4-(6-chloro-8-fluoro-2-(((2R,7aS)-2-fluorotetrahydro-1H-pyrrolizin-7a(5H)-yl)methoxy)-4-((1R,4S)-1-isopropyl-2-(3-(trifluoromethyl)-1H-1,2,4-triazole-1-carbonyl)-5-oxa-2,8-diazaspiro[3.5]nonan-8-yl)quinazolin-7-yl)-7-fluorobenzo[b]thiophene-3-carbonitrile]"
